Data from paper PMC12321279, “Novel 4,5‐Dihydrothiazole‐Phenylpiperazine Derivatives: Synthesis, Docking Studies and Pharmacological Evaluation as Serotonergic Agents” (Chemmedchem, 2025).
Where “and” joins values, the source holds several entries; their conditions need not be identical. Equal entries are not always repeated. Where two headings read alike, the source gives them in different places.

Columns and labels:
5‐HT2C receptor = biological target: T1, 5‐HT2C receptor (Rattus norvegicus, UniProt P08909); assay: 5‐HT2C competition binding assay ([3H]mesulergine, frontal cortex membranes); details: 5 nM [3H]mesulergine
T1 construct: 10 μM pargyline and 160μg of the frontal cortex membrane suspension; from tissue; host or cells: rat (Sprague-Dawley) frontal cortex membranes
T1 sequence (P08909 33-460): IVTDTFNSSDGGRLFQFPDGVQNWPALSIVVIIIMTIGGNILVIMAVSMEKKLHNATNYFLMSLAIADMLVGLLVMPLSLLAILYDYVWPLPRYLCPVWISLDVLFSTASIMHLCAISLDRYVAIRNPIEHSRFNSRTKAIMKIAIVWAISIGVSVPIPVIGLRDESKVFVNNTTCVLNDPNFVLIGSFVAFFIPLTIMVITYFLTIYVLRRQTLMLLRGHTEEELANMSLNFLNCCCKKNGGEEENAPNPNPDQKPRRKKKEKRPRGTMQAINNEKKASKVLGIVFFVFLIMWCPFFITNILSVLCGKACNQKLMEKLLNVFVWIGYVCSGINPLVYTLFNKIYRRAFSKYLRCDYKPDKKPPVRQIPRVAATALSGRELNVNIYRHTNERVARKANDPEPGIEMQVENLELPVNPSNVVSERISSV
Procedure: (§1) Sprague‐Dawley rats were sacrificed by isoflurane overdose. Brains were rapidly removed and placed on ice. Hippocampi (for the 5‐HT1A assay) and frontal cortices (for the 5‐HT2A and 5‐HT2C assays) were dissected on a Petri dish. The tissue from 10 rats was homogenized in 30 vol. homogenization buffer (50 mM Tris–HCl, […], 1 mM EDTA, 1 mM dithiothreitol) with a handheld Teflon‐glass homogenizer. The homogenate was centrifuged at 48,000 × g at 4 °C for 15 min. The pellet was suspended and homogenized in the homogenization buffer and incubated for 10 min. at 36 °C. The centrifugation and suspension steps were repeated twice. The final pellet was homogenized in 5 vol. 50 mM Tris–HCl, pH = 7.4 buffer and stored at −80 °C for no longer than 6 months. […] For the 5‐HT2C assay, compounds were incubated in duplicate with 5 nM [^3H]mesulergine (specific activity: 80.2 Ci mmol^−1, Revvity, MA, USA) for 60 min. at 36 °C in a 50 mM Tris‐HCl (pH 7.4) buffer, supplemented with 5 mM MgCl2, 140 mM NaCl, 1 mM DTT, 1 mM CaCl2, 10 μM pargyline and 160μg of the frontal cortex membrane suspension. Non‐specific binding was determined with 10μM serotonin. The final DMSO concentration in the assay was 5%. After incubation, the reaction mixture was deposited onto Unifilter GF/C plates (Revvity, MA, USA) presoaked in 0.4% PEI (or 0.4% PEI and 0.5% Triton X‐100 for the 5‐HT2C assay) for 1 h with the FilterMate‐96 Harvester (Revvity, MA, USA). Then, each well was washed with 2 mL of 50 mM Tris–HCl (pH 7.4) buffer to separate bound ligands from free and the plates were left to dry overnight. Then, 35μl of Microscint‐20 scintillation fluid (Revvity, MA, USA) was added to each filter well and left to equilibrate for 2h. Filter‐bound radioactivity was counted in a MicroBeta2 LumiJet scintillation counter (Revvity, MA, USA). Binding curves were fitted with one site non‐linear regression. Binding affinity (pKi and Ki) for each compound was calculated from the […] values with the Cheng‐Prusoff equation from two separate experiments.

5‐HT1A receptor [1] = biological target: T2, 5‐HT1A receptor (Rattus norvegicus, UniProt P19327); assay: 5‐HT1A competition binding assay ([3H]8‐OH‐DPAT, hippocampal membranes); details: 1 nM [3H]8‐OH‐DPAT
T2 construct: 80 μg of hippocampal membrane suspension (the 5‐HT1A assay); from tissue; host or cells: rat (Sprague-Dawley) hippocampus membranes
T2 sequence (P19327 1-422): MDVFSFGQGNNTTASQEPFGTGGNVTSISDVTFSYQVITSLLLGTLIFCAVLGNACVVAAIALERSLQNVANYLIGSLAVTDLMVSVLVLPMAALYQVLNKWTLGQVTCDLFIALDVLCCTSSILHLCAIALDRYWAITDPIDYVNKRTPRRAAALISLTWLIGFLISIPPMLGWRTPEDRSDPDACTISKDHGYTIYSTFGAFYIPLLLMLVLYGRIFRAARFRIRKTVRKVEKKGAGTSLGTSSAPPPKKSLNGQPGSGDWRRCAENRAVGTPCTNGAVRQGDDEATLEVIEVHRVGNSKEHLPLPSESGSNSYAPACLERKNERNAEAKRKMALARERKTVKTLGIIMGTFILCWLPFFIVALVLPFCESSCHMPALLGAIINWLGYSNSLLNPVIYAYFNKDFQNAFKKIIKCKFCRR
Procedure: as §1

5‐HT2A receptor [2] = biological target: T3, 5‐HT2A receptor (Rattus norvegicus, UniProt P14842); assay: 5‐HT2A competition binding assay ([3H]ketanserin, frontal cortex membranes); parameters: from tissue; host or cells: rat (Sprague-Dawley) frontal cortex membranes; details: 1 nM [3H]ketanserin
5‐HT1A receptor [3] = biological target: T2, 5‐HT1A receptor; assay: 5‐HT1A receptor activation in the [35S]GTP‐γ‐S assay (hippocampal membranes); assay type: biochemical; details: [35S]GTPγS; for Emax (%) ± SEM, 5‐HT1A receptor G‐protein stimulation / pEC50, 5‐HT1A receptor G‐protein stimulation / EC50 (95% CI, μM), 5‐HT1A receptor G‐protein stimulation / EC50 / Emax: rat hippocampal membranes; for agonist activity for the 5‐HT1A receptor (classification in words): efficacy compared with 8‐OH‐DPAT; for Emax: read-out: Emax (%) ± SEM, 5‐HT1A receptor G‐protein stimulation
Procedure: Seven compound concentrations equally spaced on a log scale (10–4 M to 10–10 M) were incubated in duplicate with hippocampal membrane preparations (5μg per well) in assay buffer (50 mM Tris‐HCl, pH = 7.4, 1 mM EGTA, 3 mM MgCl2, 100 mM NaCl, and 30 μM GDP) and 0.08 nM [^35S]GTP‐γ‐S (specific activity: 1250 Ci mmole^−1, Revvity). Nonspecific binding was determined with 10μM of unlabeled GTP‐γ‐S. The final DMSO concentration in the assay was 5%. The reaction mixture was incubated for 90 min. at 30 °C on an orbital shaker set at 250 rpm. Next, the reaction mixture was deposited under vacuum with the FilterMate Harvester (Revvity, USA) onto Unifilter GF/C Plates (Revvity, MA, USA) presoaked with wash buffer (50 mM Tris‐HCl, pH = 7.4). The wells were then rapidly washed with 2 mL of wash buffer. Filter plates were dried overnight at room temperature. Once completely dry, 35 μl of MicroScint PS (Revvity, MA, USA) scintillation fluid was added to each well. Radioactivity was counted in a MicroBeta2 LumiJet scintillation counter (Revvity, MA, USA). Data were analyzed with GraphPad Prism 5.0 software (GraphPad Software, San Diego California USA, www.graphpad.com). The curves were fitted with three‐parameter non‐linear regression model.

5‐HT2A receptor [4] = biological target: T3, 5‐HT2A receptor; assay: Inhibition of 5‐HT‐evoked contractions in isolated rat ileum; parameters: segments (1–1.5 cm) of ileum were removed, flushed of luminal contents, and placed in Krebs solution; from tissue; host or cells: isolated rat (Sprague-Dawley) ileum segments; details: 5‐HT 10^−5 M, compounds 10^−8–10^−5 M
Procedure: Male rats (Sprague‐Dawley, 160–200 g; Charles River Laboratories; Calco, Italy) were manipulated and cared for in strict compliance with the principles of laboratory animal care. Experimental procedures were conducted in conformity with Italian (D.L. 26/2014) and European (directive 2010/63/EU) regulations on the protection of animals used for scientific purposes and approved by the Italian Ministry. Animal housing complied with recent pharmacological guidance.^[ [40] ^] All animals weighing 160–200 g were used after a 1‐week acclimation period (temperature 23 ± 2 °C; humidity 60%, free access to water and standard food).
The segments were prepared as previously described:^[ [41] ^] the segments were set up in such a way as to record contractions mainly from the longitudinal axis, in an organ bath containing 20 mL of Krebs solution, bubbled with 95% O2 and 5% CO2 and maintained at 37 °C. The tissues were connected to an isotonic transducer (load: 0.5 g), connected to Power Lab system (Ugo Basile, Comerio, Italy). Ileal segments were equilibrated for 60 min^[ [16] ^] followed by three repeated additions of submaximal concentration of 5‐HT (10^−5 M) in order to record stable control contractions. […] The contact time for each concentration was 10 min. The compounds were dissolved in DMSO. […] Results are expressed as mean (SEM). […] The IC50 and Emax values were calculated with the aid of a computer program (GraphPad Prism 5).

[5] = 95% CI in brackets, read-out: 5‐HT2C Ki (95% CI)
[6] = 95% CI in brackets, read-out: 5‐HT1A Ki (95% CI)
[7] = read-out: 5‐HT1A pKi (converted)
[8] = 95% CI in brackets, read-out: 5‐HT2A Ki (95% CI)
[9] = read-out: 5‐HT2C pKi (converted)
[10] = 95% CI in brackets, read-out: EC50 (95% CI, μM), 5‐HT1A receptor G‐protein stimulation

T3 sequence (P14842 whole entry): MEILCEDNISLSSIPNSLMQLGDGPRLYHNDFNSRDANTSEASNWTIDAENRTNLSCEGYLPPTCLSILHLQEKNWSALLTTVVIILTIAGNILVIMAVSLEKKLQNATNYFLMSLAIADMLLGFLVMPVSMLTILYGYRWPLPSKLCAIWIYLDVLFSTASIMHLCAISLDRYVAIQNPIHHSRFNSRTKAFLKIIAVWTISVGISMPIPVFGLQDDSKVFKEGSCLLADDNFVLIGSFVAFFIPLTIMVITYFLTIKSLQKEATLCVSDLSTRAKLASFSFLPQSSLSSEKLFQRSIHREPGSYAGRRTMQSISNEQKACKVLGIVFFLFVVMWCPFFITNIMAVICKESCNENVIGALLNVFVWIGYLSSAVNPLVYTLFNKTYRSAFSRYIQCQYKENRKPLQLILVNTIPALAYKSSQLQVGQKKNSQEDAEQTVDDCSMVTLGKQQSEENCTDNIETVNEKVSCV

Structure (SMILES)	Ki (5‐HT2C receptor; [5]) [µM]	Ki (5‐HT1A receptor [1]; [6])	Ki (5‐HT1A receptor [1]; [7]) [µM]	Ki (5‐HT2A receptor [2]; [8]) [µM]	Emax (%) ± SEM, 5‐HT1A receptor G‐protein stimulation (5‐HT1A receptor [3])	Ki (5‐HT2C receptor; [9]) [µM]	EC50 (5‐HT1A receptor [3]; [10]) [µM]	Emax (5‐HT1A receptor [3]) [%]	other results
COc1cc(OC)c(C(=O)CCCCN2CCC3(CC2)NC(=O)NC3=O)cc1NS(=O)(=O)c1ccc(C(F)(F)F)cc1 [RS‐102 221, reference compound]	0.0057								5‐HT2C pKi (5‐HT2C receptor): 8.24 ± 0.23
O=C(NCCCN1CCN(c2ccc(C3=NCCS3)cc2)CC1)c1ccccn1 [FG‐3, N‐(3‐(4‐(4‐(4,5‐dihydrothiazol‐2‐yl) phenyl) piperazin‐1‐yl) propyl) picolinamide]	1.46	4.5 µM	4.57	6.3	No activity				pEC50, 5‐HT1A receptor G‐protein stimulation (5‐HT1A receptor [3]): No activity; EC50 (95% CI, μM), 5‐HT1A receptor G‐protein stimulation (5‐HT1A receptor [3]; 95% CI in brackets): No activity; agonist activity for the 5‐HT1A receptor (classification in words) (5‐HT1A receptor [3]): do not express any agonist activity
O=C(NCCCN1CCN(c2ccc(C3=NCCS3)cc2)CC1)C1CC2C=CC1C2 (stereo not drawn) [FG‐15, Exo‐N‐(3‐(4‐(4‐(4,5‐dihydrothiazol‐2‐yl)phenyl)piperazin‐1‐yl)propyl) bicyclo [2.2.1] hept‐5‐ene‐2‐carboxamide]	2.36		17.8			2.4	88.1	137 ± 4.7	Ki (5‐HT2A receptor [2]; read-out: 5‐HT2A pKi (converted)): 4.47 µM; EC50 (5‐HT1A receptor [3]; read-out: pEC50, 5‐HT1A receptor G‐protein stimulation (converted)): 89.1 µM
O=C1C2C3C=CC(C3)C2C(=O)N1OCCCN1CCN(c2ccc(C3=NCCS3)cc2)CC1 (centres unmarked) [FG‐9, 2‐(3‐(4‐(4‐(4,5‐dihydrothiazol‐2‐yl) phenyl) piperazin‐1‐yl) propoxy)‐3a,4,7,7a‐tetrahydro‐1H‐4,7‐methanoisoindole‐1,3(2H)‐dione]	2.03		72.4	14.1	No activity				pEC50, 5‐HT1A receptor G‐protein stimulation (5‐HT1A receptor [3]): No activity; EC50 (95% CI, μM), 5‐HT1A receptor G‐protein stimulation (5‐HT1A receptor [3]; 95% CI in brackets): No activity; agonist activity for the 5‐HT1A receptor (classification in words) (5‐HT1A receptor [3]): do not express any agonist activity
CCCN(CCC)C1CCc2cccc(O)c2C1 (centres unmarked) [8‐OH‐DPAT, 8‐hydroxy‐dipropylaminotetraline, reference compound]								177 ± 1.2	
O=C(NCCCN1CCN(c2ccccc2C2=NCCS2)CC1)C1CC2C=CC1C2 (stereo not drawn) [FG‐16, Endo‐N‐(3‐(4‐(2‐(4,5‐dihydrothiazol‐2‐yl)phenyl)piperazin‐1‐yl)propyl) bicyclo[2.2.1] hept‐5‐ene‐2‐carboxamide]	4.83	0.025 µM and 0.0251 µM		1.37	127 ± 3.2%		41		Emax (5‐HT2A receptor [4]; read-out: EMAX, maximal inhibitory effect on 5‐HT‐induced contractions in the rat ileum): 39.1%; IC50 (5‐HT2A receptor [4]; IC50, inhibition of 5‐HT‐induced contractions in the rat ileum, contact time 10 min): 6.35 µM
O=C(NCCCN1CCN(c2ccccc2C2=NCCS2)CC1)C1CC2C=CC1C2 (stereo not drawn) [FG‐13, Exo‐N‐(3‐(4‐(2‐(4,5‐dihydrothiazol‐2‐yl)phenyl)piperazin‐1‐yl)propyl) bicyclo [2.2.1] hept‐5‐ene‐2‐carboxamide]		0.22 µM		3.54		0.794	79.6	132 ± 8.4	
O=C1C2C3C=CC(O3)C2C(=O)N1OCCCN1CCN(c2ccc(C3=NCCS3)cc2)CC1 (centres unmarked) [FG‐12, 2‐(3‐(4‐(4‐(4,5‐dihydrothiazol‐2‐yl) phenyl) piperazin‐1‐yl) propoxy)‐3a,4,7,7a‐tetrahydro‐1H‐4,7‐epoxyisoindole‐1,3(2H)‐dione]	0.286		63.1	6.93			46.2	135 ± 18.2	
O=C1C2C3C=CC(O3)C2C(=O)N1OCCCN1CCN(c2ccccc2C2=NCCS2)CC1 (centres unmarked) [FG‐10, 2‐(3‐(4‐(2‐(4,5‐dihydrothiazol‐2‐yl) phenyl) piperazin‐1‐yl) propoxy)‐3a,4,7,7a‐tetrahydro‐1H‐4,7‐epoxyisoindole‐1,3(2H)‐dione]		0.61 µM		3.84		3.24	52	120 ± 14.9	
